Like-named read-outs stand apart in the source and are kept apart here.
What was measured:
Format in all cases: cell-based
[1] = target: T1, human NaX-QTT (Homo sapiens, UniProt Q01118, F724Q/I1189T/I1492T); assay: Whole-cell patch clamp of HEK293T cells expressing NaX-QTT, effect of extracellular Ca^2+
T1 construct: expressed in transfected cells; host or cells: Xenopus laevis oocytes injected with in vitro transcribed capped RNA
Procedure: (§1) FIGS. 5A-C show pharmacology of the human NaX-QTT channel. FIG. 5A, left and middle panels, show representative I-V currents from HEK293 cells expressing human NaX-QTT with indicated extracellular monovalent cations with or without indicated amounts of CaCl2 in the extracellular solution. Voltage ramp from −80 to +80 mV was applied.
HEK293T cells expressing NaX- or NaX-QTT-eGFP-2×FLAG were seeded on glass cover slips an hour before whole-cell patch-clamping experiments. For a more physiological condition (FIGS. 4D and 7B), the extracellular solution contained 150 mM NaCl, 5 mM KCl, 0.5 mM CaCl2, 1.2 mM MgCl2, 10 mM HEPES, and 13 mM D-(+)-glucose (pH 7.4) with NaOH, ˜320 mOsm/L, and the intracellular solution contained 140 mM CsCl, 10 mM CsF, 5 mM EGTA, 10 mM HEPES, and 2 mM Na2ATP (pH 7.2) with CsOH, ˜304 mOsm/L. To determine if NaX-QTT was cation-permeable, we first substituted all extracellular cations with NMDG^+ (FIG. 4E). Extracellular solution contained 150 mM NMDG and 10 mM HEPES (D-(+)-glucose was added accordingly to achieve osmolarity ˜325 mOsm/L and pH was adjusted to 7.4 with hydrochloric acid). To determine if NaX-QTT was anion-permeable, we substituted all Cl^− ions in both intra- and extracellular solutions with the large anion methanesulfonate (MS^−) (FIG. 15C). The extracellular solution contained 150 mM NaMS and 10 mM HEPES (D-(+)-glucose was added accordingly to achieve osmolarity ˜325 mOsm/L, and pH was adjusted to 7.4 with NaOH). […]
For data analysis, raw current traces were typically filtered using 8-pole Bessel low-pass filter at 500-800 Hz. […] For ion-selectivity experiments performed with Na^+ intracellular solution (FIGS. 4E and 5A), liquid junction potential (LJP) was measured with reference to the Na^+ intracellular solution and corrected after recording. Relative ion permeabilities (PNa/PX) were calculated using the equation PX/PNa=[Na^+]IC exp(ErevF/RT)/[X^+]EC (X=Na, K, Li or Cs), where F is Faraday's constant, R is the gas constant, […], and Erevs were measured from the −80- to +80-m V ramp (corrected for LJP).

[2] = target: T1, human NaX-QTT; assay: Two-electrode voltage-clamp of Xenopus laevis oocytes expressing human NaX-QTT with blockers or multivalent cations
Procedure: as §1
Oocytes were prepared as previously described^68. Healthy-looking stage V-VI oocytes were injected with 2.5-40 ng of RNA (in 5-41 nL) using a Nanoliter 2010 injector (World Precision Instruments). When excluding one or more construct, an equivalent volume of nuclease-free water was added to maintain a constant RNA concentration across different construct combinations. Injected oocytes were kept at 18° C., 140 rpm, in ND96 supplemented with 50 μg/mL gentamicin and 50 μg/mL tetracycline (in mM: 96 NaCl, 2 KCl, 1 MgCl2, 1.8 CaCl2), 2.5 sodium pyruvate, 0.5 theophylline, 5 HEPES; pH 7.4 with NaOH) for two to five days. Two-electrode voltage-clamp measurements were performed at room temperature using a Warner OC-725C Oocyte Clamp amplifier (Warner Instrument Corp, USA) and under constant perfusion with ND96 solution (in mM: 96 NaCl, 2 KCl, 1 MgCl2, 1.8 CaCl2, 5 HEPES; pH 7.4 with NaOH). For ion selectivity experiments, external solutions contained 115 mM of test cations as chloride salts, 1.2 mM CaCl2, 2 mM MgCl2, 5 mM HEPES (pH 7.4 with the corresponding hydroxide). Data acquisition was performed using a Digidata 1550 digitizer (Molecular devices; sampled at 10 kHz) and pCLAMP 10 software (Molecular Devices). Microelectrodes from borosilicate glass capillaries (Harvard Apparatus) were prepared to have resistances around 0.2-1.0 MQ2 using a P-1000 Flaming/Brown Micropipette Puller System (Sutter Instrument) and backfilled with 3 M KCl. Aconitine and veratridine (Alomone Labs) were dissolved in DMSO to make 50 mM stocks, and were further diluted to 300 and 100 μM in ND96 for electrophysiological experiments. Other NaV activators (Alomone Labs; FIGS. 8A-D) were dissolved in water to make stock solutions. The voltage dependence of ion current was determined using a protocol consisting of steps from a holding potential of 0 mV to voltages ranging from +80 to −100 mV for 1 s in 20 mV increment.

[3] = target: T2, human NaX (Homo sapiens, UniProt Q01118); assay: Two-electrode voltage-clamp of oocytes expressing human NaX with classical NaV channel activators; conditions: different voltage-step protocols in oocytes; wild-type human NaX
T2 construct: expressed in transfected cells; host or cells: Xenopus laevis oocytes injected with in vitro transcribed capped RNA
Excerpt: FIGS. 8A-D show functional evaluation of human NaX in Xenopus laevis oocytes. FIGS. 8A, left panel, and 8B, left panel, show representative currents from Xenopus laevis oocytes expressing human NaX with the indicated pharmacological modulator present in the extracellular solution. […] FIGS. 8C, left panel, and 8D, left panel, show representative currents from oocytes expressing human NaX with the indicated proteins co-expressed. FIG. 8C, right panel, show I-V plots with steps between +80 and −100 mV, in 20 mV increments, from a HP of 0 mV.
Oocytes were prepared as previously described^68. Healthy-looking stage V-VI oocytes were injected with 2.5-40 ng of RNA (in 5-41 nL) using a Nanoliter 2010 injector (World Precision Instruments). When excluding one or more construct, an equivalent volume of nuclease-free water was added to maintain a constant RNA concentration across different construct combinations. Injected oocytes were kept at 18° C., 140 rpm, in ND96 supplemented with 50 μg/mL gentamicin and 50 μg/mL tetracycline (in mM: 96 NaCl, 2 KCl, 1 MgCl2, 1.8 CaCl2), 2.5 sodium pyruvate, 0.5 theophylline, 5 HEPES; pH 7.4 with NaOH) for two to five days. […] The voltage dependence of ion current was determined using a protocol consisting of steps from a holding potential of 0 mV to voltages ranging from +80 to −100 mV for 1 s in 20 mV increment.

[4] = 1 mM, oocytes, step from 0 to +80 mV
[5] = at concentrations up to 300 μM, oocytes

T1 sequence (Q01118 whole entry F724Q/I1189T/I1492T): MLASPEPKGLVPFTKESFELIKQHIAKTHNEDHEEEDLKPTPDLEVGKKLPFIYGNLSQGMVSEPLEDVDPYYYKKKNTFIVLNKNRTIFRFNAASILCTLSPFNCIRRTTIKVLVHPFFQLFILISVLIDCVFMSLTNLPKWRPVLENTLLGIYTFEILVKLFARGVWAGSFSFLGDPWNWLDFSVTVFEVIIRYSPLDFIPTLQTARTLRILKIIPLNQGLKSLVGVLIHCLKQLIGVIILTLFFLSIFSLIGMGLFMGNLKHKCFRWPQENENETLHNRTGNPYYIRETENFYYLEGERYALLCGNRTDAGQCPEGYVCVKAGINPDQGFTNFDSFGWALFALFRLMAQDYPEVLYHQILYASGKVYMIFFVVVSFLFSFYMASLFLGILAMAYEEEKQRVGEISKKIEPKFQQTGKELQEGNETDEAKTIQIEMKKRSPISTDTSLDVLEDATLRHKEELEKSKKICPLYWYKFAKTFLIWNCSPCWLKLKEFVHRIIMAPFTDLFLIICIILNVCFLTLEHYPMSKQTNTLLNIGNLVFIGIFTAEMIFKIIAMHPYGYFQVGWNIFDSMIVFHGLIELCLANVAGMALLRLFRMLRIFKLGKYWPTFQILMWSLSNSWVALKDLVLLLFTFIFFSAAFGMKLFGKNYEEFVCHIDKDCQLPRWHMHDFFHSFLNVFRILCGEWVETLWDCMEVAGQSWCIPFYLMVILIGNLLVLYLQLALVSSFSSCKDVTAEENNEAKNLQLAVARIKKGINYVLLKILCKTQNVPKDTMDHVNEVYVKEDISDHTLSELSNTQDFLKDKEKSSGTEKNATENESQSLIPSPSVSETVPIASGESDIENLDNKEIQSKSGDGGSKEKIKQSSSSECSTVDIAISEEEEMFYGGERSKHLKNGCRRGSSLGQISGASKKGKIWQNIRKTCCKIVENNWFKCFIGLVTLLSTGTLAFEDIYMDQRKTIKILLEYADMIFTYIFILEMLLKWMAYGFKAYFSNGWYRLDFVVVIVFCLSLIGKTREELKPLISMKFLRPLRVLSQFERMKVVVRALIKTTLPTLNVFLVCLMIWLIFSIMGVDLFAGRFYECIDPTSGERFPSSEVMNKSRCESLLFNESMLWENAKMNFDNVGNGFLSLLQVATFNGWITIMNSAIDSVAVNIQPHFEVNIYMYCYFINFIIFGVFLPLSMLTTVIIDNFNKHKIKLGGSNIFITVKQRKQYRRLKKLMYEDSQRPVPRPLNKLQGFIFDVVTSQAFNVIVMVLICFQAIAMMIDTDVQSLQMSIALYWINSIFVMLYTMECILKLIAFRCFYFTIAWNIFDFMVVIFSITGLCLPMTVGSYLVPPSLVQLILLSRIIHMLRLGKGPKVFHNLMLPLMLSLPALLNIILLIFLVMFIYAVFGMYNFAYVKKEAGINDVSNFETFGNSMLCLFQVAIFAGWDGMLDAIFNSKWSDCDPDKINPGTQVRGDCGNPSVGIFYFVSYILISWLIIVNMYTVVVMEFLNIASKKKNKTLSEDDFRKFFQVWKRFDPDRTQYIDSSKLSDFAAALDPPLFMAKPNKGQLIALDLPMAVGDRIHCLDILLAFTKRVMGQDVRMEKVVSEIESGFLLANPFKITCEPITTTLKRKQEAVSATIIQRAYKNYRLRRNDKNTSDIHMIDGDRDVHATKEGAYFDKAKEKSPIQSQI
T2 sequence (Q01118 whole entry): as the sequence (Q01118 whole entry F724Q/I1189T/I1492T) above, with Q724F, T1189I, T1492I counted along it

[Ca+2] [Ca^2+]
permeation through NaX-QTT ([1]; HEK293T cells, extracellular CaCl2): does not permeate | potency of extracellular Ca^2+ block on NaX relative to traditional NaV channels ([1]; NaX-QTT versus NaV channels): ~10 fold | inhibition of the outward Na^+ current ([1]; extracellular Ca^2+ 1 mM, HEK293T cells, NaX-QTT, at 80 mV): ~70%

[Co+2] [Co^2+]
inhibition of NaX-QTT currents [2, 4]: inhibited

[Gd+3] [Gd^3+]
inhibition of NaX-QTT currents compared with Zn^2+ and Co^2+ ([2]; trivalent cation, oocytes): more potent

[Zn+2] [Zn^2+]
inhibition of NaX-QTT currents [2, 4]: inhibited

CCN1C[C@]2(COC)[C@H](O)C[C@H](OC)[C@@]34[C@@H]5C[C@@]6(O)[C@H](OC(=O)c7ccccc7)[C@@H]5[C@@](OC(C)=O)([C@@H]([C@H](OC)[C@H]23)[C@@H]14)[C@@H](O)[C@@H]6OC [aconitine]
activation of human NaX-mediated currents [3]: did not invoke any clear human NaX-mediated currents

O=C(NCC1CCCCN1)c1cc(OCC(F)(F)F)ccc1OCC(F)(F)F (stereo not shown) [flecainide]
inhibition of NaX-QTT currents [2, 5]: strong inhibitory effects were not observed

CN(C)C(=O)C(CCN1CCC(O)(c2ccc(Cl)cc2)CC1)(c1ccccc1)c1ccccc1 [loperamide]
inhibition of NaX-QTT currents [2]: equally potent inhibitors

O=C1NC(=O)C(c2ccccc2)(c2ccccc2)N1 [phenytoin]
inhibition of NaX-QTT currents [2, 5]: strong inhibitory effects were not observed

— US20250164502A1, “Mutant Human Nax Proteins and Screening Methods” (Genentech, Inc., priority 2021, published 2025)
